Experimental data from ChEMBL document CHEMBL5143510, “Structure modification and biological evaluation of indole-chalcone derivatives as anti-tumor agents through dual targeting tubulin and TrxR” (Eur J Med Chem, 2022).
Calls of active or inactive are those of the source. No cut-off for these calls is given here.

What was measured:
[1] = Cytotoxicity against human HUVEC cells assessed as reduction in cell viability incubated for 48 hrs by MTT assay; format: toxicity, cell-based
MCF7 = assay: Antiproliferative activity against human MCF7 cells assessed as reduction in cell viability incubated for 48 hrs by MTT assay; format: functional, cell-based; settings: MCF7, 48 h
A2780 = assay: Antiproliferative activity against human A2780 cells assessed as reduction in cell viability incubated for 48 hrs by MTT assay; format: functional, cell-based; settings: A2780, 48 h
MHCC97H [2] = assay: Induction of morphological changes in human MHCC97H cells assessed as cell rounding at 5 to 50 nM incubated for 48 hrs by phase contrast microscopic analysis; format: functional, cell-based; settings: dose 5-50 nM
MHCC97H [3] = assay: Antiproliferative activity against human MHCC97H cells assessed as reduction in cell viability incubated for 48 hrs by MTT assay; format: functional, cell-based
HCT-8 = assay: Antiproliferative activity against human HCT-8 cells assessed as reduction in cell viability incubated for 48 hrs by MTT assay; format: functional, cell-based; settings: HCT-8, 48 h
Tubulin (Homo sapiens) [4] = biological target: T1, Tubulin (Homo sapiens) (UniProt P68371+Q9H4B7+P0DPH7+P68366+Q13509+Q71U36+P04350+Q3ZCM7+P07437+P68363+Q9BQE3+Q6PEY2+Q13885+Q9BVA1+Q9BUF5); assay: Disruption of microtubule network in human MHCC97H cells assessed as dotted morphology at 5 to 50 nM incubated for 24 hrs by Hoechst 33342 staining based confocal microscopy; format: cell-based; settings: dose 5-50 nM
[5] = Cytotoxicity against human L02 cells assessed as reduction in cell viability incubated for 48 hrs by MTT assay; format: toxicity, cell-based
[6] = Cytotoxicity against human HLF cells assessed as reduction in cell viability incubated for 48 hrs by MTT assay; format: toxicity, cell-based
[7] = Cytotoxicity against human MCF-10A cells assessed as reduction in cell viability incubated for 48 hrs by MTT assay; format: toxicity, cell-based
[8] = Selectivity ratio, ratio of IC50 for cytotoxicity against human HLF cells to IC50 for antiproliferative activity against human MHCC97H cells; format: toxicity, cell-based; settings: HLF cells versus MHCC97H cells, read-out: Ratio IC50
[9] = Selectivity ratio, ratio of IC50 for cytotoxicity against human MCF-10A cells to IC50 for antiproliferative activity against human MHCC97H cells; format: toxicity, cell-based; settings: MCF-10A cells versus MHCC97H cells, read-out: Ratio IC50
[10] = Antiproliferative activity against vincristine resistant human HCT-8/VCR cells assessed as reduction in cell viability incubated for 48 hrs by MTT assay; format: functional, cell-based
[11] = Antiproliferative activity against paclitaxel resistant human A2780/PTX cells assessed as reduction in cell viability incubated for 48 hrs by MTT assay; format: functional, cell-based
[12] = Resistance index, ratio of IC50 for antiproliferative activity against vincristine resistant human HCT-8/VCR cells to IC50 for antiproliferative activity against human HCT-8 cells; format: functional
[13] = Resistance index, ratio of IC50 for antiproliferative activity against paclitaxel resistant human A2780/PTX cells to IC50 for antiproliferative activity against human A2780 cells; format: functional
HUVEC [14] = assay: Induction of morphological changes in human HUVEC cells assessed as cell shrinkage at 50 nM incubated for 48 hrs by phase contrast microscopic analysis; format: toxicity, cell-based; settings: 0.05 µM
HUVEC [15] = assay: Induction of morphological changes in human HUVEC cells assessed as loss of cell interactions at 50 nM incubated for 48 hrs by phase contrast microscopic analysis; format: toxicity, cell-based; settings: 0.05 µM
Tubulin [16] = assay: Inhibition of tubulin polymerization (unknown origin) assessed as decrease in fluorescence intensity incubated for 90 mins by DAPI staining based microplate reader analysis; format: protein-complex assay, Homo sapiens
Tubulin (Homo sapiens) [17] = biological target: T1, Tubulin (Homo sapiens); assay: Disruption of microtubule network in human MHCC97H cells assessed as shrunken morphology at 5 to 50 nM incubated for 24 hrs by Hoechst 33342 staining based confocal microscopy; format: cell-based; settings: dose 5-50 nM
Tubulin (Homo sapiens) [18] = biological target: T1, Tubulin (Homo sapiens); assay: Disruption of microtubule network in human MHCC97H cells assessed as punctate morphology at 5 to 50 nM incubated for 24 hrs by Hoechst 33342 staining based confocal microscopy; format: cell-based; settings: dose 5-50 nM
Tubulin (Homo sapiens) [19] = biological target: T1, Tubulin (Homo sapiens); assay: Inhibition of colchicine binding to tubulin (unknown origin) at 0.625 uM by competitive binding assay relative to control; format: protein-complex assay
Tubulin (Homo sapiens) [20] = biological target: T1, Tubulin (Homo sapiens); assay: Inhibition of colchicine binding to tubulin (unknown origin) at 1.25 uM by competitive binding assay relative to control; format: protein-complex assay
Tubulin (Homo sapiens) [21] = biological target: T1, Tubulin (Homo sapiens); assay: Inhibition of colchicine binding to tubulin (unknown origin) at 2.50 uM by competitive binding assay relative to control; format: protein-complex assay; settings: dose 2.5 µM
Tubulin (Homo sapiens) [22] = biological target: T1, Tubulin (Homo sapiens); assay: Inhibition of colchicine binding to tubulin (unknown origin) at 10 uM by competitive binding assay relative to control; format: protein-complex assay
Tubulin [23] = assay: Inhibition of colchicine binding to tubulin (unknown origin) by competitive binding assay; format: protein-complex assay, Homo sapiens
[24] = Inhibition of TrxR in human MHCC97H cells using DTNB as substrate preincubated for 4 hrs in presence of NADPH followed by substrate addition by microplate reader analysis; format: cell-based
Homo sapiens = species on record: Homo sapiens; assay: Irreversible inhibition of TrxR (unknown origin) using DTNB as substrate at 5 uM incubated for 2 hrs in presence of NADPH followed by substrate addition ultrafiltration based microplate reader analysis relative to control
MHCC97H [25] = assay: Downregulation of TrxR in human MHCC97H cells at 5 to 50 nM incubated for 48 hrs by Western blot analysis; format: functional, cell-based; settings: dose 5-50 nM
A2780/PTX = assay: Downregulation of TrxR in paclitaxel resistant human A2780/PTX cells at 10 to 50 nM incubated for 48 hrs by Western blot analysis; format: functional, cell-based; settings: dose 10-50 nM
NCI/ADR-RES = assay: Downregulation of TrxR in adriamycin resistant human MCF7/ADR cells at 10 to 50 nM incubated for 48 hrs by Western blot analysis; format: functional, cell-based; settings: dose 10-50 nM
MHCC97H [26] = assay: Induction of apoptosis in human MHCC97H cells assessed as decrease in MMP level incubated for 24 hrs by JC-1 staining based flow cytometry; format: functional, cell-based; settings: dose 5-50 nM, DDE = dose-dependent effect
MHCC97H [27] = assay: Induction of apoptosis in human MHCC97H cells assessed as nucleus shrinkage at 5 to 50 nM incubated for 24 hrs by Hoechst 33342 staining based fluorescence microscopy; format: functional, cell-based; settings: dose 5-50 nM
MHCC97H [28] = assay: Induction of apoptosis in human MHCC97H cells assessed as downregulation of Bcl-2 expression at 5 to 50 nM measured after 24 to 48 hrs by Western blot analysis; format: functional, cell-based; settings: dose 5-50 nM, time 24-48 hrs
MHCC97H [29] = assay: Induction of apoptosis in human MHCC97H cells assessed as downregulation of Bcl-xl expression at 5 to 50 nM measured after 24 to 48 hrs by Western blot analysis; format: functional, cell-based; settings: dose 5-50 nM, time 24-48 hrs
MHCC97H [30] = assay: Antitumor activity against human MHCC97H cells xenografted in BALB/c mouse assessed as tumor growth inhibition at 30 mg/kg, ip administered every other day for 30 days; format: functional; settings: 720 h, time 30 day, read-out: TGI

COc1ccc2c(/C=C(\C)C(=O)c3cc(OC)c(OC)c([Se]C)c3)c[nH]c2c1
IC50 at 48 h [1]: 56 nM
IC50 (MCF7): 35 nM
IC50 (A2780): 18 nM
Activity (MHCC97H [2]): Active
IC50 (MHCC97H [3]): 6 nM
IC50 (HCT-8): 29 nM
Activity (Tubulin (Homo sapiens) [4]): Active
IC50 at 48 h [5]: 398 nM
IC50 at 48 h [6]: 2370 nM
IC50 at 48 h [7]: 723 nM
selectivity ratio [8]: 394
selectivity ratio [9]: 121
IC50 [10]: 45 nM
IC50 [11]: 20 nM
Ratio IC50 [12]: 1.56
Ratio IC50 [13]: 1.11
Activity (HUVEC [14]): Toxic
Activity (HUVEC [15]): Toxic
IC50 (Tubulin [16]): 810 nM
Activity (Tubulin (Homo sapiens) [17]): Active
Activity (Tubulin (Homo sapiens) [18]): Active
inhibition (Tubulin (Homo sapiens) [19]): 45%
inhibition (Tubulin (Homo sapiens) [20]): 56.5%
inhibition (Tubulin (Homo sapiens) [21]): 46.7%
inhibition (Tubulin (Homo sapiens) [22]): 94.4%
IC50 (Tubulin [23]): 1300 nM
IC50 [24]: 10200 nM
inhibition (Homo sapiens): 84%
Activity (MHCC97H [25]): Active
Activity (A2780/PTX): Active
Activity (NCI/ADR-RES): Active
Activity (MHCC97H [26]): Dde
Activity (MHCC97H [27]): Active
Activity (MHCC97H [28]): Active
Activity (MHCC97H [29]): Active
inhibition in vivo at 30 mg/kg (MHCC97H [30]): 75.4%
